Experimental data published in US8741932B2, “Imidazopyridine derivatives” (Piramal Enterprises Limited, priority 2009, dated 2014).

Experiments:
[1] = system: IL-8; assay: Synovial tissue assay, IL-8; assay type: cell-based; conditions: Homo sapiens; synovial tissue cells from rheumatoid arthritis patients, 16 hours
Method: (§1) The assay was designed as in the reference, Lancet, 2(8657), 244-7, Jul.
(§2) Stock Solution: Compounds of the present invention were dissolved in DMSO to obtain a stock solution of 20 mM.
(§3) Synovial tissue was obtained from rheumatoid arthritis patients undergoing knee replacement surgery. The tissue was minced into small pieces and digested in RPMI medium containing 100 U/ml penicillin-G, 100 μg/ml streptomycin, 50 ng/ml amphotericin B (GIBCO; USA), 1.33 mg/ml collagenase Type I (Worthington Biochemical Corporation, New Jersey), 0.5 μg/ml DNAse Type I (Sigma Aldrich; St. Louis, Mo.) and 8.33 U/ml heparin (Biological E. Limited, India) for 3 hours at 37° C., 5% CO2. The digested tissue was filtered through a membrane (mesh size 70 micron; Sigma Aldrich). Subsequently, the cells were washed 3 times and resuspended in complete medium (RPMI supplemented with 5% FBS and 5% human serum-AB+) at a concentration of 1×10^6 cells/ml. All cell washes in this assay were performed using Rosewall Park Memorial Institute (RPMI)-1640 medium (JRH; Australia). For the experiment, 100 μl of cell suspension was added to the wells of a 96-well culture plate. Following cell plating, 100 μl of the culture medium and 1 μl of various concentrations (0.01, 0.03, 0.1, 0.3, 1, 3, 10, 30 and 100 μM) of the compounds of present invention dissolved in DMSO were added to the cells. The final concentration of DMSO was adjusted to 0.5%. For experimental purposes, 1 μl of […] concentrated solution of the compounds of present invention were dissolved in 200 μl cell suspension to achieve a final concentration of 0.01, 0.03, 0.1, 0.3, 1, 3, 10, 30 and 100 μM. The vehicle (0.5% DMSO) was used as control. 10 μM dexamethasone (Sigma Aldrich) or 1 μM 7-hydroxyfluorinide (7HF) were used as standards for the experiments. The plates were incubated for 16 hours at 37° C., 5% CO2. Subsequently, the supernatants were harvested and stored at −70° C. The amounts of TNF-α, IL-6 and interleukin-8 (IL-8) in the supernatants were assayed using OptiEIA ELISA sets, (BD BioSciences Pharmingen). The protocol followed was as per manufacturers instructions. […] The cytotoxicity of test compounds in synovial cells was assessed by MTS assay. Absorbance was measured at 490 nm. Percent cytotoxicity was calculated by the equation: % Cytotoxicity=(A−B)/A×100 where, A is the absorbance of cells treated with DMSO alone and B is the absorbance of cells treated with the test article.

[2] = system: T47D; assay: Cytotoxicity assay (propidium iodide), T47D; assay type: cell-based; conditions: Homo sapiens; T47D (C6e, breast); 48 hours
Method: (§4) Cells from cell lines as mentioned in the table given below were seeded at a density of 3000 cells/well in a white opaque 96-well plate. Following incubation at 37° C./5% CO2 for a period of 18-24 hours, the cells were treated with various concentrations (stock solution was prepared in DMSO and subsequent dilutions were made in media as per ATCC guidelines) of the representative compounds of present invention (refer table 3) for a period of 48 hours. At the end of treatment, the spent culture medium was discarded, the cells were washed with 1×PBS and 200 μl of 7 μg/ml propidium iodide was added to each well. The plates were frozen at −70° C. for at least 24 hours. For analysis, the plates were brought to RT, allowed to thaw and were read in PolarStar fluorimeter with the fluorescence setting. The percentage of viable cells in the non treated set of wells was considered to be 100 and the percentage viability following treatment was calculated accordingly. IC50 values were calculated from graphs plotted using these percentages.

[3] = system: TNF-α; assay: Synovial tissue assay, TNF-α; assay type: cell-based; conditions: Homo sapiens; synovial tissue cells from rheumatoid arthritis patients, 16 hours
Method: as §1, §2, §3

[4] = system: HCT116; assay: Cytotoxicity assay (propidium iodide), HCT116; assay type: cell-based; conditions: Homo sapiens, HCT-116; HCT116 (C4b, colon); 48 hours
Method: as §4

[5] = system: SKOV3; assay: Cytotoxicity assay (propidium iodide), SKOV3; assay type: cell-based; conditions: Homo sapiens, SK-OV-3; SKOV3 (C3b, ovarian); 48 hours
Method: as §4

[6] = molecular target: T1, PI3Kα kinase (Homo sapiens, UniProt P42336); assay: Kinase assay (PI3Kα); assay type: biochemical; conditions: read-out: IC50 (μM) for PI3K inhibition
T1 construct: purchased Millipore, USA
Method in brief: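 Recombinant PI3Kα (20 ng) phosphorylated 12.5 μg phosphatidylinositol with 10 μM ATP and 1 μCi ^32γ P […] in 10 mM Hepes pH 7.5, 50 mM MgCl2 for 20 min at 30° C. Lipids were extracted with MeOH/CHCl3, resolved by TLC, and labelled PI quantified by autoradiography densitometry; PI-103 served as standard.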

[7] = system: IL-6; assay: Human monocyte assay, LPS-stimulated IL-6; assay type: cell-based; conditions: Monocyte; human monocytes, 1 μg/ml LPS, 5 hours
Method in brief: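 Adherent human PBMC-derived monocytes (2×10^4/well) were cultured 48 h, preincubated 30 min with compound or 0.5% DMSO, then stimulated with 1 μg/ml E. coli LPS for 5 h at 37° C. TNF-α and IL-6 in supernatants were measured by ELISA.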

[8] = system: A549; assay: Cytotoxicity assay (propidium iodide), A549; assay type: cell-based; conditions: Homo sapiens; A549 (C1a, lung); 48 hours

T1 sequence (P42336 whole entry): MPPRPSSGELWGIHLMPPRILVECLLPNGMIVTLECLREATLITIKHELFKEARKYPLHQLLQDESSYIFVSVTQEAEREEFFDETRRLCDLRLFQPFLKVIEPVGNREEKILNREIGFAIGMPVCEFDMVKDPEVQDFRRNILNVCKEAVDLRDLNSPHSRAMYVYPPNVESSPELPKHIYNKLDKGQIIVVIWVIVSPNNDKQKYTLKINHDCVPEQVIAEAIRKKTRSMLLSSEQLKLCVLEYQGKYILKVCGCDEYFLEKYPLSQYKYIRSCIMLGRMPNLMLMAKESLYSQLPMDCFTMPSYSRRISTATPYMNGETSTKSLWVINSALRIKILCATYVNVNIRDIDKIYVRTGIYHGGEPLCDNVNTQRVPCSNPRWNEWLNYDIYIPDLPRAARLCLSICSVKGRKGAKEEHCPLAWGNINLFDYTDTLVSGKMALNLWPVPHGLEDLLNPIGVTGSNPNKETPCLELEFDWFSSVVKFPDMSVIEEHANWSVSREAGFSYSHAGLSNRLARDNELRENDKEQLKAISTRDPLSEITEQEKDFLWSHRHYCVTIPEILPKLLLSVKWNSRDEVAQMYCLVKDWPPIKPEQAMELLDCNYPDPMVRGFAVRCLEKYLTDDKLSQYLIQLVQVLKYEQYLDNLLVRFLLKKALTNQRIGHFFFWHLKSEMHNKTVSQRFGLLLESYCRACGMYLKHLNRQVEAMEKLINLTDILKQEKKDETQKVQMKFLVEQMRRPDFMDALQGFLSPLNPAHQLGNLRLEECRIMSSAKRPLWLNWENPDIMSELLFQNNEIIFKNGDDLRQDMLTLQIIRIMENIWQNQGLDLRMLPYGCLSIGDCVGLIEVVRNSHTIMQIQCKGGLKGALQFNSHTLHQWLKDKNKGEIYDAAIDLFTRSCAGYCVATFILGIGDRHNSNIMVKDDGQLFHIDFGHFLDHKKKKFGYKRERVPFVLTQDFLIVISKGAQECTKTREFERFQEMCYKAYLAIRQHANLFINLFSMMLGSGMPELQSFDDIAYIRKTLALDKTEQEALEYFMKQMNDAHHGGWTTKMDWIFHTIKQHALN
T1 sequence (P27986 whole entry partner): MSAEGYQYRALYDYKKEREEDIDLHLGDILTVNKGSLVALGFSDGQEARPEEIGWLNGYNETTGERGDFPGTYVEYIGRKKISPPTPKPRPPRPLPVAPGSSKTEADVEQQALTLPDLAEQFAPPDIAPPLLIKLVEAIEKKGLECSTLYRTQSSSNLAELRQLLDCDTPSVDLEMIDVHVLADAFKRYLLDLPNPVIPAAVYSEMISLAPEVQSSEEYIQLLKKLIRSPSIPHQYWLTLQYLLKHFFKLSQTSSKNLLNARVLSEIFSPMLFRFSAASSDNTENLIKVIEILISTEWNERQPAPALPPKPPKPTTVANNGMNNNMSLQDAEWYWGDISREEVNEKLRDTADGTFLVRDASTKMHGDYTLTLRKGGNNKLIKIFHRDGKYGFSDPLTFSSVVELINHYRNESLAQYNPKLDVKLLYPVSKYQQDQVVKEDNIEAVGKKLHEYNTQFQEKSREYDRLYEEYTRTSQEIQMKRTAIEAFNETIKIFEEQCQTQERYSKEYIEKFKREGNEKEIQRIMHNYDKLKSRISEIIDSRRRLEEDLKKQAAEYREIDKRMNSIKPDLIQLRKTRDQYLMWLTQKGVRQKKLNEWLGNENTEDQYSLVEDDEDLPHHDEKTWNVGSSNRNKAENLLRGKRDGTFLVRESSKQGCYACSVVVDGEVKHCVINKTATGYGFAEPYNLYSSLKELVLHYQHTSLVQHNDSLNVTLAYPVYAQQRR

CN(N=Cc1cnc2ccc(-c3cccnc3)cn12)S(=O)(=O)c1cccc(F)c1 [Example 5, 3-Fluoro-N-methyl-N′-((6-(pyridine-3-yl)imidazo[1,2-a]pyridine-3-yl)methylene)benzenesulfonohydrazide]
IC50 [1]: 0.3 to 3 µM | IC50 [2]: > 5000 nM | IC50 [3]: 0.01 to 0.3 µM | IC50 [4]: 10 to 5000 nM | IC50 [5]: 10 to 5000 nM | IC50 [6]: 0.5 to 1 µM | IC50 [7]: 0.001 to 5 µM | IC50 [8]: 10 to 5000 nM

CN(N=Cc1cnc2ccc(-c3cccnc3)cn12)S(=O)(=O)c1ccc(F)cc1 [Example 6, 4-Fluoro-N-methyl-N′-((6-(pyridine-3-yl)imidazo[1,2-a]pyridine-3-yl)methylene)benzenesulfonohydrazide]
IC50 [1]: 0.3 to 3 µM | IC50 [2]: > 5000 nM | IC50 [3]: 0.01 to 0.3 µM | IC50 [4]: 10 to 5000 nM | IC50 [6]: 0.5 to 1 µM | IC50 [7]: 0.001 to 5 µM | IC50 [8]: 10 to 5000 nM

CN(N=Cc1cnc2ccc(-c3cccnc3)cn12)S(=O)(=O)c1cc(F)cc(F)c1 [Example 16, 3,5-Difluoro-N-methyl-N′-((6-(pyridine-3-yl)imidazo[1,2-a]pyridine-3-yl)methylene) benzenesulfonohydrazide]
IC50 [1]: 0.3 to 3 µM | IC50 [3]: 0.01 to 0.3 µM | IC50 [6]: 0.5 to 1 µM | IC50 [7]: 0.001 to 5 µM

Cc1ccc(F)cc1S(=O)(=O)N(C)N=Cc1cnc2ccc(-c3cccnc3)cn12 [Example 21, 5-Fluoro-N, 2-dimethyl-N′-((6-(pyridine-3-yl)imidazo[1,2-a]pyridine-3-yl)methylene) benzenesulfonohydrazide]
IC50 [1]: 0.01 to 0.3 µM | IC50 [3]: 0.01 to 0.3 µM | IC50 [4]: 10 to 5000 nM | IC50 [5]: 10 to 5000 nM | IC50 [6]: 0.01 to 0.5 µM | IC50 [7]: 0.001 to 5 µM | IC50 [8]: 10 to 5000 nM

Cc1ccc([N+](=O)[O-])cc1S(=O)(=O)N(C)N=Cc1cnc2ccc(-c3cccnc3)cn12 [Example 25]
IC50 [1]: 0.3 to 3 µM | IC50 [2]: 10 to 5000 nM | IC50 [3]: 0.01 to 0.3 µM | IC50 [4]: 10 to 5000 nM | IC50 [5]: 10 to 5000 nM | IC50 [6]: 0.01 to 0.5 µM | IC50 [7]: 0.001 to 5 µM | IC50 [8]: 10 to 5000 nM
